# Results taken from patent US5504190A, “Equimolar multiple oligomer mixtures, especially oligopeptide mixtures” (priority 1994, dated 1996).
# System: Escherichia coli (ATCC 25922)
# Assay: antimicrobial assay, growth inhibition of E. coli (OD 620 nm)
# Type: cell-based
# Conditions: Tables 1 and 2
# Protocol: (§1) Escherichia coli (ATCC 25922) was used as Gram-negative (-) and Staphylococcus aureus (ATCC 29213) as Gram-positive (+) bacteria. Bacteria were grown overnight (about 18 hours) at 37° C. in Mueller-Hinton (MH) broth. This culture was reinoculated and incubated at 37° C. to reach the exponential phase of bacteria growth; i.e., a final bacterial suspension containing about 10^5 to 5×10^5 colony-forming units (CFU)/ml. The concentration of cells was established by plating 100 μl of different dilutions of the culture solution (e.g., 10^-2, 10^-3 and 10^-4) onto solid agar plates. Following an overnight (about 18 hours) incubation at 37° C., the CFU thus formed were counted on each agar plate.
# (§2) 96-Well tissue culture plates were utilized, with eight wells per plate containing only medium as control blanks, whereas eight other wells contained medium plus cells as a positive growth control. These controls were used to detect possible medium contamination and to provide a measure of uninhibited growth of the microorganisms.
# (§3) For initial screening studies, oligopeptide sets were added to the bacterial suspension to reach a final concentration of 1 mg/ml.
# (§4) The plates were incubated overnight (about 18 hours) at 37° C., and the optical density (OD) determined at 620 nm after different times of incubation.
Compound,IC-50 [µg/mL],MIC [µg/mL]
Ac-FRWWHR-NH2 [FRWWHR],13,16 to 32
Ac-RRWWMH-NH2 [RRWWMH],24,31 to 62
Ac-RRWWMT-NH2 [RRWWMT],18,20 to 32
Ac-FRWLLH-NH2 [FRWLLH],17,20 to 40
Ac-RRWWMG-NH2 [RRWWMG],9,10 to 16
Ac-RRWWMW-NH2 [RRWWMW],15,16 to 32
Ac-RRWWMK-NH2 [RRWWMK],14,16 to 32
Ac-RRWWMI-NH2 [RRWWMI],12,16 to 32
Ac-RRWWMA-NH2 [RRWWMA],18,20 to 32
Ac-FRWWHH-NH2 [FRWWHH],31,34 to 62
Ac-RRWWMR-NH2 [RRWWMR],9,10 to 16
Ac-RRWWMY-NH2 [RRWWMY],15,16 to 32
Ac-RRWWMC-NH2 [RRWWMC],12,31 to 62
Ac-RRWWMF-NH2 [RRWWMF],18,20 to 32
Ac-FRWWHF-NH2 [FRWWHF],30,31 to 62
Ac-FRWWHK-NH2 [FRWWHK],15,16 to 32
Ac-RRWWMN-NH2 [RRWWMN],25,31 to 62
Ac-FRWWHW-NH2 [FRWWHW],27,62 to 125
Ac-RRWWML-NH2 [RRWWML],15,16 to 32
Ac-RRWWMS-NH2 [RRWWMS],17,20 to 32
Ac-RRWWMM-NH2 [RRWWMM],18,20 to 32
Ac-RRWWMV-NH2 [RRWWMV],15,16 to 32
Ac-FRWLLV-NH2 [FRWLLV],24,40 to 80
Ac-RRWWMP-NH2 [RRWWMP],26,31 to 62
Ac-FRWWHL-NH2 [FRWWHL],31,62 to 125

# System: Staphylococcus aureus (ATCC 29213)
# Assay: microbe, parasite or virus in culture
# Conditions: 7-mer studies, Tables 5 and 6 and parent 6-mer
# Protocol: as §1, §2, §3, §4
Compound,IC-50 [µg/mL],MIC [µg/mL]
Ac-RRWWRFC-NH2 [RRWWRFC],6.2,8 to 16
Ac-RRRWWRF-NH2 [RRRWWRF],8,8 to 16
Ac-RRWWRFY-NH2 [RRWWRFY],7.6,8 to 16
Ac-LRRWWRF-NH2 [LRRWWRF],6.1,8 to 16
Ac-RRWWRFI-NH2 [RRWWRFI],6.9,8 to 16
Ac-CRRWWRF-NH2 [CRRWWRF],6.3,8 to 16
"Ac-RRWWRF-NH2 [RRWWRF, Ac-Arg-Arg-Trp-Trp-Arg-PheNH2]",8.7,–
Ac-RRWWRFL-NH2 [RRWWRFL],5.9,8 to 16
Ac-FRRWWRF-NH2 [FRRWWRF],5.9,8 to 16
Ac-RRWWRFV-NH2 [RRWWRFV],7.9,8 to 16
Ac-RRWWRFR-NH2 [RRWWRFR],7.9,8 to 16

# Same assay, conditions: ATCC 29213, 18 h
row,Compound,MIC [µg/mL]
1,"Ac-RRWWRF-NH2 [RRWWRF, Ac-Arg-Arg-Trp-Trp-Arg-PheNH2]",8 to 16
2,"Ac-RRWWCR-NH2 [RRWWCR, Ac-Arg-Arg-Trp-Trp-Cys-Arg-NH2]",3.906

# Same assay, conditions: Staphylococcus aureus, ATCC29213
row,Compound,MIC [µg/mL]
1,"CC1(C)S[C@@H]2[C@H](NC(=O)[C@H](N)c3ccccc3)C(=O)N2[C@H]1C(=O)O [Ampicillin, reference compound]",4
2,"CC[C@H]1OC(=O)[C@H](C)[C@@H](O[C@H]2C[C@@](C)(OC)[C@@H](O)[C@H](C)O2)[C@H](C)[C@@H](O[C@@H]2O[C@H](C)C[C@H](N(C)C)[C@H]2O)[C@](C)(O)C[C@@H](C)C(=O)[C@H](C)[C@@H](O)[C@]1(C)O [Erythromycin, reference compound]",0.5
3,"CN(C)[C@@H]1C(O)=C(C(N)=O)C(=O)[C@@]2(O)C(O)=C3C(=O)c4c(O)cccc4[C@@](C)(O)[C@H]3C[C@@H]12 [Tetracycline, reference compound]",0.5

# Same assay, conditions: Table 7, separate study
row,Compound,MIC [µg/mL]
1,Neomycin [reference compound],1
2,"CC1(C)S[C@@H]2[C@H](NC(=O)Cc3ccccc3)C(=O)N2[C@H]1C(=O)O [Penicillin G, reference compound]",32
3,Gentamicin C [reference compound],0.5
4,Bacitracin A [reference compound],16

# Same assay, conditions: Tables 3 and 4
Compound,IC-50 [µg/mL],MIC [µg/mL]
Ac-FRWWHR-NH2 [FRWWHR],18,16 to 32
Ac-RRWWRA-NH2 [RRWWRA],14,18 to 36
Ac-RRWWCS-NH2 [RRWWCS],5.9,7 to 14
Ac-RRWWRL-NH2 [RRWWRL],12,13 to 26
Ac-FRWLLL-NH2 [FRWLLL],18,16 to 31
Ac-RRWWCV-NH2 [RRWWCV],4.9,3.8 to 7.7
"Ac-RRWWRF-NH2 [RRWWRF, Ac-Arg-Arg-Trp-Trp-Arg-PheNH2]",5.5,6 to 9
Ac-FRWWHF-NH2 [FRWWHF],16,31 to 62
Ac-RRWWCT-NH2 [RRWWCT],7.9,4.9 to 10
Ac-FRWWHI-NH2 [FRWWHI],21,31 to 62
Ac-FRWWHK-NH2 [FRWWHK],30,31 to 62
Ac-RRWWRC-NH2 [RRWWRC],8.2,10 to 19
Ac-FRWWHW-NH2 [FRWWHW],23,31 to 62
Ac-FRWLLC-NH2 [FRWLLC],15,13 to 26
Ac-RRWWRI-NH2 [RRWWRI],12,12 to 23
Ac-FRWWHL-NH2 [FRWWHL],9.3,16 to 32
Ac-FRWLLW-NH2 [FRWLLW],14,12 to 24

# System: Candida albicans ATCC 10231
# Assay: antifungal assay, growth inhibition of C. albicans (OD 620 nm)
# Type: cell-based
# Conditions: Candida albicans, ATCC10231
# Protocol: Antifungal studies were carried out Candida albicans ATCC 10231 as the target microbe. The yeast culture was spread onto YM agar plates and incubated at 30° C. for 48 hours. Three colonies of this culture (about 1 mm in diameter each) were then inoculated in 5 ml of 1 X PBS solution. The suspension was vortexed and diluted 10-fold in YM broth, for an approximate final concentration of 10^5 to 5×10^5 CFU (colony forming units)/ml.
# Actual concentrations of yeast cultures were determined by plating 100 μl of different solutions of the culture solution (10^-3, 10^-4 and 10^-5) onto solid YM agar plates. After 48 hours of incubation at 30° C., CFU formed were counted from each plate.
# The assays were carried out in 96-well tissue culture plates. Eight wells containing only medium of YM broth served as negative controls, whereas eight wells containing medium and yeast culture served as positive controls. These controls were used to detect possible medium contamination and to provide a measure of uninhibited growth of the yeast.
# For screening studies, oligopeptide mixtures were added to the yeast suspension in duplicates to reach a final concentration of 1.5 mg/ml. […] The plates were incubated over a period of 48 hours at 30° C., and the optical density (OD) at 24 and 48 hours was determined at 620 nm.
row,Compound,MIC [µg/mL]
1,"C[C@@H]1[C@H](O)[C@@H](C)/C=C/C=C/CC/C=C/C=C/C=C/C=C/[C@H](O[C@@H]2O[C@H](C)[C@@H](O)[C@H](N)[C@@H]2O)C[C@@H]2O[C@](O)(C[C@@H](O)[C@H](O)CC[C@@H](O)C[C@@H](O)C[C@@H](O)CC(=O)O[C@H]1C)C[C@H](O)[C@H]2C(=O)O [Nystatin, reference compound]",2 to 4

# Same assay, conditions: Candida albicans, ATCC10231; Table 9
row,Compound,IC50 [µg/mL]
1,"C[C@@H]1[C@H](O)[C@@H](C)/C=C/C=C/C=C/C=C/C=C/C=C/C=C/[C@H](O[C@@H]2O[C@H](C)[C@@H](O)[C@H](N)[C@@H]2O)C[C@@H]2O[C@](O)(C[C@@H](O)C[C@@H](O)[C@H](O)CC[C@@H](O)C[C@@H](O)CC(=O)O[C@H]1C)C[C@H](O)[C@H]2C(=O)O [Amphotericin B, reference compound]",0.5

# Same assay, conditions: Candida albicans, ATCC10231; Table 9; read-out: MIC
row,Compound,MIC [µg/mL]
1,"C[C@@H]1[C@H](O)[C@@H](C)/C=C/C=C/C=C/C=C/C=C/C=C/C=C/[C@H](O[C@@H]2O[C@H](C)[C@@H](O)[C@H](N)[C@@H]2O)C[C@@H]2O[C@](O)(C[C@@H](O)C[C@@H](O)[C@H](O)CC[C@@H](O)C[C@@H](O)CC(=O)O[C@H]1C)C[C@H](O)[C@H]2C(=O)O [Amphotericin B, reference compound]",2 to 4

# Same assay, conditions: Table 9
Compound,IC-50 [µg/mL],MIC [µg/mL]
Ac-RRWWRFK-NH2 [RRWWRFK],46,50 to 62
Ac-KRRWWRF-NH2 [KRRWWRF],40,45 to 62
Ac-RRWWCVR-NH2 [RRWWCVR],50,50 to 62
Ac-RRWWRH-NH2 [RRWWRH],30.1,40 to 80
Ac-RRWWRFR-NH2 [RRWWRFR],45,50 to 62
